Test results: patent US20050203168A1, “Angiotensin converting enzyme inhibitor use for treatment and prevention of gastrointestinal disorders” (The Regents of the University of Michigan, priority 2004, published 2005)
“And” between values parts separate entries of the source, which are not always exact repeats. Equal values may be shown once.

What was measured:
DSS-induced colitis = DSS-induced colitis mouse model; type: in vivo
Method: Male C57BL/6 specific-pathogen-free 2-month-old mice were kept in a 12-hour day/night environment maintained at 23° C. and a relative humidity of 40-60%. All mice drank 2.5% (w/v) DSS in water for 7 days followed by one day of plain water, while being fed normal mouse chow. Mice either received daily enalaprilat injection (0.015 mg/day, injection volume 0.5 ml, intraperitoneal) (n=6, “ACE-I”) or daily normal saline injection 0.5 ml (n=6, “Saline”). Body weight and hemoccult stool reaction were recorded. After the eight days of treatment, mice were euthanized with CO2, and colonic samples were immediately taken for histology and mucosal RNA extraction. Distal 1-cm colonic segments were excised, opened longitudinally, and fixed in 10% neutral buffered formalin. The remainder of the colon, including the cecum, was washed, cut into pieces, and mixed gently at 37° C. in EDTA/dithiothreitol buffer. The resulting mixture of epithelial cells and intraepithelial lymphocytes was then filtered through nylon wool and pelleted by centrifugation. Total RNA of the cell pellet was obtained using TRIZOL reagent and chloroform-isopropanol-ethanol extraction. Reverse transcription of RNA was done in the presence of RNAse inhibitor. RT product was then amplified with forward and reverse primers specific for ACE, TNF-α, and beta-actin, using real-time semiquantitative PCR. PCR results were analyzed by expressing ACE and TNF-α levels as a ratio to beta-actin levels, and were compared using a 2-tailed students' T test. Histologic grading of colitis was done by blinded observers using a standard scale for colitis severity. Histologic scores, as well as body weights and hemoccult results, were compared between groups using a 2-tailed homoscedastic T test.

IEL ACE mRNA = IEL ACE mRNA by real time PCR in SBS and Sham mice given ACE-I; type: in vivo, mouse; details: enalaprilat 0.6 mg/kg/day i.p. 7 days, ratio ACE-cDNA copies over β-actin-cDNA copies
Method: (§1) Short Bowel Syndrome Model: A 70% mid-small bowel resection was performed (i.e. bowel between 3.5 cm distal to the ligament of Treitz and 3.5 cm proximal to the ileocecal valve), followed by an end-to-end jejuno-ileal anastomosis with 7-0 monofilament, absorbable suture. Postoperatively a subcutaneous bolus of 3 ml 0.9% saline solution was given to maintain hydration status.
(§2) Sham operation: Mid-small bowel was transsected and re-anastomosed without bowel-resection.
IEL purification: Isolation of purified IEL from EC was performed by direct magnetic separation. Magnetic beads conjugated with antibody to CD45 (pan-lymphoid marker) were used to segregate IEL from EC (BioMag SelectaPure Anti-Mouse CD 45R Antibody Particles, Polyscience Inc., Warrington, Pa.). Magnetic separation was performed twice to further deplete EC. […]
Real time PCR: Real-time PCR was run to better quantify actual changes in ACE expression. cDNA was also used for real time PCR. The same primers for ACE and β-actin were used as for conventional PCR, SYBR Green I was utilized for fluorescence. […] Ct- values of ACE and β-actin were converted to numbers of cDNA copies, and results expressed as the ratio of ACE over β-actin expression.
(§3) To further understand the relevance of ACE expression on EC apoptosis, ACE-inhibition was used. […] After 1 week, mice were killed, EC apoptotic rates assessed, and IEL mRNA and protein isolated.

SBS mice = experiment: Histology (villus height, crypt depth) of mid-small bowel in SBS and Sham mice given ACE-I; type: in vivo, mouse; details: for Crypt depth / Villus height: 0.6 mg/kg/day i.p., 1 week postoperatively, 0.6 mg/kg/day
Method: (§4) Animals: Male, 2 month old, C57BL/6J mice (Jackson Laboratories, Bar Harbor, Me.) were maintained in a 12-hour day-night rhythm at 23° C. and a relative humidity of 40%-60%. 24 hours before surgery chow was exchanged to micro-stabilized rodent liquid diet (TestDiet, Richmond, Ind.). Anesthesia was achieved using sodium pentobarbital (50 mg/kg body weight, intraperitoneally, i.p.). For some experiments B6.129P2-Ace^tm2Unc (ACE^−/−; lacking somatic ACE, generous gift from the Dr. O. Smithies, Duke University), or B6;129S6-Tnf^tm1Gkl (TNF-α-knockout mice, Jackson Labs) were used. Studies conformed, and were approved by the University Committee on Use and Care of Animals at the University of Michigan.
as §1, §2
Histology: A 0.5 cm segment of mid-small bowel was fixed in 10% formaldehyde, and processed for hematoxylin and eosin staining. Villus height and crypt depth were measured using a calibrated micrometer. Each measurement consisted of a mean of 16 different low power fields.
(§5) To further understand the relevance of ACE expression on EC apoptosis, ACE-inhibition was used. ACE-I (enalaprilat, 0.6 mg/kg/day i.p.) was given to both SBS (SBS+ACE-I), and sham operated (Sham+ACE-I) mice over a 7 day period, starting on the day after surgery. This latter group was studied as an additional control to assess the effects of ACE-I in the absence of a SBS. After 1 week, mice were killed, EC apoptotic rates assessed, and IEL mRNA and protein isolated.

IEL TNF-α mRNA = IEL TNF-α mRNA by RT-PCR in SBS and Sham mice given ACE-I; type: in vivo, mouse; details: for IEL TNF-α mRNA: 0.6 mg/kg/day i.p. 7 days, ratio over β-actin mRNA
Method: as §1, §2
IEL purification: Isolation of purified IEL from EC was performed by direct magnetic separation. Magnetic beads conjugated with antibody to CD45 (pan-lymphoid marker) were used to segregate IEL from EC (BioMag SelectaPure Anti-Mouse CD 45R Antibody Particles, Polyscience Inc., Warrington, Pa.). Magnetic separation was performed twice to further deplete EC. Final IEL purity was greater than 99% by flow cytometry.
Isolation of total RNA: A guanidine isothiocyanate/chloroform extraction method was performed using Trizol (Gibco BRL, Gaithersburg, Md.) according to manufacturer's directions.
Reverse transcriptase polymerase chain reaction (RT-PCR): mRNA (poly-A positive) was reversed transcribed into cDNA following a standard protocol. Specific primers for selected gene sequences were designed. PCR and gel were run under standard conditions. To ensure that DNA product was generated at the exponential portion of the product curve, the following cycle numbers were used: 28 cycles for ACE; 32 cycles for Rap2 interacting protein and TNF-α; and 34 cycles for lipocalin 2, amphiregulin, leucine-rich-α2-glycoprotein, and angiotensin II receptors. Gel bands were analyzed by DNA sequencing to ensure the correct product. Kodak EDAS System (Rochester, N.Y.) was used for imaging and quantification. Results were expressed as the ratio of the investigated mRNA over the β-actin mRNA expression.
as §3

[1] = tested on: epithelial cell (EC) apoptosis; experiment: Epithelial cell apoptosis/necrosis by Annexin V / propidium iodide flow cytometry in SBS and Sham mice given ACE-I; type: in vivo, mouse; details: 0.6 mg/kg/day i.p., 1 week
Method: as §4, §1, §2
Annexin V staining: Apoptosis was determined by flow cytometry based on the cell surface expression of phosphatidylserine using Annexin V staining (BD PharMingen, San Diego, Calif.). Propidium iodide was utilized to simultaneously monitor cell necrosis. Flow cytometry was performed by using standard techniques. Separation of EC from IEL was done by forward- and side-scatter gating characteristics. Further confirmation of EC and IEL purity was performed with specific staining of EC with antibody generated by a hybridoma G8.8 and a pan-lymphoid antibody (anti-CD45, PharMingen, San Diego, Calif.): Purity exceeded >98%.
Mucosal cell isolation: Isolation of mucosal cells was performed using standard protocols. […]
as §3

[2] = tested on: epithelial cell (EC) apoptosis; experiment: Epithelial cell apoptosis by TUNEL staining in SBS and Sham mice given ACE-I; type: in vivo, mouse; details: for EC Apoptosis (TUNEL analysis): 0.6 mg/kg/day i.p. 7 days
Method: as §4, §1, §2
TUNEL staining: Paraffin-embedded tissue was assayed with TUNEL (Terminal deoxynucleotidyl transferase Biotin-dUTP Nick End Labeling) staining, according to slight modification of manufacturer's instructions (ApopTag InSitu Apoptosis Detection Kit, Serological Corporation, Norcross, Ga.): slides were incubated with only ⅓ of the recommended concentration of TdT enzyme, in order to avoid over-staining. Apoptosis rate (percent of EC showing apoptosis) was assessed with TUNEL staining and by morphological criteria (nuclear margination, chromatin and cytoplasmic condensation, shrinkage from neighboring cells, and formation of apoptotic bodies with nuclear and cytoplasmic fragmentation). Each assessment of apoptosis consists of the mean of 8 different crypt-villus-complexes.
as §5

IEL ACE protein = IEL ACE protein by immunoblot in SBS and Sham mice given ACE-I; type: in vivo, mouse; details: 0.6 mg/kg/day i.p. 7 days, ratio of ACE over β-actin protein
Method: as §1, §2
IEL purification: Isolation of purified IEL from EC was performed by direct magnetic separation. Magnetic beads conjugated with antibody to CD45 (pan-lymphoid marker) were used to segregate IEL from EC (BioMag SelectaPure Anti-Mouse CD 45R Antibody Particles, Polyscience Inc., Warrington, Pa.). […]
Immunoblot analysis: Protein was extracted from isolated IEL and immunoblots performed by using a Bio-Rad protein assay kit (Bio-Rad Laboratories, Hercules, Calif.), with standard methods. […] Expression for β-actin was determined in the same fashion by re-probing membranes with purified anti-mouse β-actin (1:12000, Sigma-Aldrich, St. Louis, Mo.). Results are expressed as the ratio of ACE over β-actin protein expression.
as §3

[3] = ACE-I administration to SBS mice

C[C@H](N[C@@H](CCc1ccccc1)C(=O)O)C(=O)N1CCC[C@H]1C(=O)O [ACE-I, enalaprilat]
ACE levels (mRNA) (DSS-induced colitis; DSS + ACE-I, colonic mucosal ACE as a ratio to beta-actin levels): 0.08 ± 0.13
Hemocult onset (DSS-induced colitis; DSS + ACE-I, enalaprilat 0.015 mg/day i.p. daily): 4.8 ± 0.8 days
Body Weight Loss (DSS-induced colitis; DSS + ACE-I, enalaprilat 0.015 mg/day i.p. daily, 2.5% DSS 7 days): 16.6 ±+2.7%
Histologic Grade (histologic colitis score) (DSS-induced colitis; DSS + ACE-I, enalaprilat 0.015 mg/day i.p. daily, after eight days): 11.8 ± 1.5
Colon histology (FIG. 5) (DSS-induced colitis; DSS colitis, daily enalaprilat injection, saline controls: essentially complete loss of crypts): significant areas retaining colonic crypts as well as surface epithelial cells
Time course of development of heme-positive stools (DSS-induced colitis; compared to mice treated only with saline injection (FIG. 6)): significantly delayed
IEL ACE mRNA (IEL ACE mRNA; SBS + ACE-I mice): 0.63 ± 0.25
IEL ACE mRNA (IEL ACE mRNA; Sham + ACE-I mice): 0.66 ± 0.22
Change in crypt depth compared to SBS mice (SBS mice; [3]): significant (P=0.02), additional increase in crypt depth
Change in villus height compared to SBS mice (SBS mice; [3]): unchanged
Crypt depth (SBS mice; SBS + ACE-I mice): 145±22 μm and 145 ± 22° μm
Villus height (SBS mice; SBS + ACE-I mice): 552±56 μm
Alterations in histological features (SBS mice; Sham + ACE-I mice): no significant alterations
Crypt depth (SBS mice; Sham + ACE-I mice): 87±6 μm
Villus height (SBS mice; Sham + ACE-I mice): 340±20 μm
IEL TNF-α mRNA (IEL TNF-α mRNA; SBS + ACE-I mice): 0.5 ± 0.07
IEL TNF-α mRNA (IEL TNF-α mRNA; Sham + ACE-I mice): 0.37 ± 0.07
Expression of TNF-α (FIG. 4) (IEL TNF-α mRNA; mice with massive small bowel resection administered ACE-I): decreased expression of TNF-α
EC necrosis (propidium iodide) ([1]; SBS + ACE-I mice): 5.2±2.6%
EC necrosis (propidium iodide) ([1]; Sham + ACE-I mice): 5.2±2.6%
EC apoptosis (Annexin V staining) ([1]; Sham + ACE-I mice, flow cytometry): 16.9±8.8%
Decline of apoptotic rate (TUNEL) compared to untreated SBS mice ([2]; SBS + ACE-I group): 58%
EC Apoptosis (TUNEL analysis) ([2]; SBS + ACE-I mice): 1.8 ± 0.5%
Decrease of EC apoptosis (TUNEL) compared to untreated Sham mice ([2]; Sham + ACE-I group): 48%
EC Apoptosis (TUNEL analysis) ([2]; Sham + ACE-I mice): 1.9 ± 0.4 %
Location of apoptotic cells (TUNEL) ([2]; after ACE-I administration, untreated SBS and Sham: crypts and lower villi): confined to the crypts
IEL ACE protein (IEL ACE protein; SBS + ACE-I mice): 0.14 ± 0.03
IEL ACE protein (IEL ACE protein; Sham + ACE-I mice): 0.13 ± 0.01
